Data taken from US6436960B1, “Farnesyl transferase inhibitors having a piperidine structure and process for preparation thereof” (LG Chemical Ltd., priority 1998, dated 2002).

Experiments:
Ras farnesyl transferase [1] = target: T1, Ras farnesyl transferase (Rattus norvegicus, UniProt Q02293+Q04631); test: in vivo (cellular) Ras farnesyl transferase inhibitory activity, Rat2 cells expressing C-Harvey-Ras; assay type: cell-based; conditions: Rat2 cell line expressing C-Harvey-Ras; concentration inhibiting 50% of farnesyl binding of Ras protein; read-out: H-Ras CIC50
T1 construct: endogenous in cells; host or cells: Rat2 fibroblasts transformed with C-Harvey-Ras, or with H-Ras carrying the K-Ras C-terminal polybasic lysine domain
Protocol: (§1) In the present experiment, Rat2 cell line which expresses C-Harvey-Ras protein having transforming activity and Rat2 cell line(Korean patent application No. 97-14409) which is transformed with fused protein of H-Ras substituted with polybasic lysine domain at C-terminus of K-Ras were used. The experiment was performed by the modified Declue's method(Declue. J. E. et al., Cancer Research, 1991, 51, 712). Hereinafter, the experimental method will be described in more detail.
(§2) 3×10^5 cells of transformed Rat2 fibroblast cell line were sprayed on 60 mm cell cultivation dish and cultivated for 48 hours in a cell incubator at 37° C. and after 50% or more of density was reached, it was treated with the test compounds. The compound according to the present invention dissolved in dimethylsulfoxide(DMSO) was used. 1% concentration of dimethylsulfoxide was used in both control and test groups. After 4 hours from the treatment with the compound, methionine labeled with 150 μCi of radioactive isotope [^35S] per 1 ml of medium was added and after cultivating for 20 hours, the cells were washed with physiological saline water. The cells were lysed using 1 ml of cold cell lysis buffer solution(50 mM of Sodium HEPES buffer solution containing 5 mM of magnesium chloride, 1 mM of DTT, 1% NP 40, 1 mM of EDTA, 1 mM of PMSF, 2 μM of leupeptin, 2 μM of pepstatin A and 2 μM of antipain) and the supernatant wherein the cells were lysed was obtained by high-velocity centrifugation of 12,000 g×5 minutes. The amount of radioisotope in the supernatant was measured and standardized to obtain a quantitative result in immunoprecipitation reaction and then, Y13-259, a monoclonal antiboby specifically binding to Ras protein(Furth, M. E. et al., J. Virol, 1982, 43, 294) was added and reacted for 15 hours at 4° C. Protein A(combined with goat anti-murine imunoglobulin antibody)-agarose suspension was added to the solution and reacted for 1 hour at 4° C. and then, to remove the unspecific binding product, immunoprecipitates were washed with a buffer solution (50 mM Tris chloride buffer solution containing 50 mM of sodium chloride, 0.5% of sodium dioxycholate, 0.5% of NP 40 and 0.1% of SDS). The precipitates were added to a buffer solution for electrophoresis and boiled and then, electrophoresis was performed using 13.5% of SDS polyacrylamide gel. After electrophoresis, the gel was fixed and dried. Then, the gel was exposed to X-ray film, developed and printed. From the result of the experiment, intensities of band of protein combined with or without farnesyl of Ras protein were measured, and the concentration of the test compound inhibiting 50% of farnesyl binding was defined as CIC50, an in vivo Ras farnesyl transferase inhibitory activity.

Ras farnesyl transferase [2] = target: T2, Ras farnesyl transferase (Homo sapiens, UniProt P49354+P49356); test: in vitro inhibitory activity for Ras farnesyl transferase, H-Ras substrate; assay type: biochemical; conditions: recombinant Ras farnesyl transferase, H-Ras substrate, tritium-farnesylpyrophosphate, 30 minutes at 37° C.; read-out: H-Ras IC50
T2 construct: made in house
Protocol: (§3) In the present experiment, Ras farnesyl transferase produced by genetic recombination techniques according to the improved Pompliano's method (Pompliano et al., Biochemistry, 1992, 31, 3800) was used, and Ras substrate(Ras-CVLS) protein described in Korean Patent Appln. No. 97-14409 was used after it has been purified according to the known method(see, Chung et al., Biochimica et Biophysica Acta, 1992, 278, 1129).
(§4) The enzyme reaction was performed in 50 μl of 50 mM Soduam HEPES buffer solution containing 25 mM of potassium chloride, 25 mM of magnesium chloride, 10 mM of DTT and 50 μM of zinc chloride. 1.5 μM of Ras substrate protein, 0.15 μM of tritium-farnesylpyrophosphate and 4.5 nM of farnesyl transferase were used.
(§5) More specifically, in the initial step, farnesyl transferase was added to the above buffer solution, reaction was maintained for 30 minutes at 37° C. and then the reaction was stopped by adding 1 ml of ethanol solution containing 1M HCl. The formed precipitates were adsorbed to GF/B filter using Hopper harvestor(Hopper #FH 225V) for filter-binding, washed with ethanol, and then radioactivity of the dried filter was measured using LKB β counter. Enzyme titer was measured in the unsaturated state of substrate where the concentrations of Ras substrate protein and farnesyl transferase have quantitative relationship. The compound according to the present invention dissolved in dimethyl sulfoxide(DMSO) was added to the reaction solution in an amount of less than 5% of the total reaction solution, and then the enzyme inhibitory activity thereof was measured. The enzyme inhibitory activity was represented by percentage of the amount of farnesyl incorporated into the Ras substrate protein in the presence of the test compound to that in the absence of the test compound. IC50 of the test compound was defined as the concentration at which 50% of the enzyme activity was inhibited.

Ras farnesyl transferase [3] = target: T1, Ras farnesyl transferase; test: in vivo (cellular) Ras farnesyl transferase inhibitory activity, Rat2 cells transformed with H-Ras fused with polybasic lysine domain of K-Ras; assay type: cell-based; conditions: Rat2 cell line transformed with H-Ras substituted with polybasic lysine domain at C-terminus of K-Ras; concentration inhibiting 50% of farnesyl binding; read-out: K-Ras CIC50
Protocol: as §1, §2

Ras farnesyl transferase [4] = target: T2, Ras farnesyl transferase; test: in vitro inhibitory activity for Ras farnesyl transferase, K-Ras substrate; assay type: biochemical; conditions: recombinant Ras farnesyl transferase, K-Ras substrate; read-out: K-Ras IC50
Protocol: as §3, with “and Ras substrate(Ras-CVLS) protein described in Korean Patent” left out
as §4, §5

Row | Structure (SMILES) | IC50 (Ras farnesyl transferase [1]) [nM] | IC50 (Ras farnesyl transferase [2]) [nM] | IC50 (Ras farnesyl transferase [3]) [µM] | IC50 (Ras farnesyl transferase [4]) [nM]
1 | COC(=O)N1CCC(Cn2cncc2Cn2cc(C(=O)N3CCN(C)CC3)c(-c3cccc4ccccc34)c2)CC1 [Compound 40, 1-[1-(1-Methoxycarbonylpiperidin-4-yl)methyl-1H-imidazol-5-yl]methyl-3-(4-methylpiperazin-1-yl)carbonyl-4-(naphthalen-1-yl)1H-pyrrole] | 30 | 1.6 | 10 to 50 | 4.2
2 | CN1CCN(C(=O)c2cn(Cc3cncn3CC3CCN(C(=O)CCc4ccccc4)CC3)cc2-c2cccc3ccccc23)CC1 [Compound 43, 3-(4-Methylpiperazin-1-yl)carbonyl-4-(naphthalen-1-yl)-1-{1-[1-(2-phenylethylcarbonyl)-piperidin-4-yl]methyl-1H-imidazol-5-yl}methyl-1H-pyrrole] | 50 | 2 | 10 to 50 | 10
3 | CN1CCN(C(=O)c2cn(Cc3cncn3CC3CCN(C(=O)N4CCc5ccccc5C4)CC3)cc2-c2cccc3ccccc23)CC1 [Compound 55, 3-(4-Methylpiperazin-1-yl)carbonyl-4-(naphthalen-1-yl)-1-{1-[1-(1,2,3,4-tetrahydroisoquinolin-2-ylcarbonyl)piperidin-4-yl]methyl-1H-imidazol-5-yl}methyl-1H-pyrrole] | 25 | 2 | 10 to 50 | 40
4 | CN1CCN(C(=O)c2cn(Cc3cncn3CC3CCN(Cc4ccc(Oc5ccccc5)cc4)CC3)cc2-c2cccc3ccccc23)CC1 [Compound 57, 3-(4-Methylpiperazin-1-yl)carbonyl-4-(naphthalen-1-yl)-1-{1-[1-(4-phenoxybenzyl)piperidin-4-yl]methyl-1H-imidazol-5-yl}methyl-1H-pyrrole] | 25 | 11 | 10 | 10
5 | O=C(c1cn(Cc2cncn2CC2CCNCC2)cc1-c1cccc2ccccc12)N1CCOCC1 [Compound 2] | 100 | 9 | 10 to 100 | 6000
6 | COCCN(C)C(=O)c1cn(Cc2cncn2CC2CCNCC2)cc1-c1cccc2ccccc12 [Compound 6, 3-[N-(2-Methoxyethyl)-N-methyl]carbamoyl-4-(naphthalen-1-yl)-1-[1-(piperidin-4-ylmethyl)-1H-imidazol-5-ylmethyl]-1H-pyrrole] | 10 to 100 | 8 | 1 to 10 | 10 to 1000
7 | CC(C)CCOC(=O)N1CCC(Cn2cncc2Cn2cc(C(=O)N3CCN(C)CC3)c(-c3cccc4ccccc34)c2)CC1 [Compound 46] | 25 | 2.2 | 10 to 50 | 16

More lines, now with the values ahead:

Row | IC50 (Ras farnesyl transferase [1]) [nM] | IC50 (Ras farnesyl transferase [2]) [nM] | IC50 (Ras farnesyl transferase [3]) [µM] | IC50 (Ras farnesyl transferase [4]) [nM] | Structure (SMILES)
8 | 10 to 100 | 4 | 10 to 50 | 10 to 100 | COCCN(C)C(=O)c1cn(Cc2cncn2CC2CCN(C(=O)OCc3csc(C(C)C)n3)CC2)cc1-c1cccc2ccccc12 [Compound 26]
9 | 10 to 100 | 2.1 | 1 to 50 | 10 to 1000 | COCCN(C)C(=O)c1cn(Cc2cncn2CC2CCN(C(=O)COc3ccccc3)CC2)cc1-c1cccc2ccccc12 [Compound 14, 3-[N-(2-Methoxyethyl)-N-methyl]carbamoyl-4-(naphthalen-1-yl)-1-[1-(1-phenoxyacetyl-piperidin-4-ylmethyl)-1H-imidazol-5-ylmethyl]-1H-pyrrole]
10 | 350 | 1.8 | 10 | 12 | CN1CCN(C(=O)c2cn(Cc3cncn3CC3CCN(C(=O)c4ccc5ccccc5c4)CC3)cc2-c2cccc3ccccc23)CC1 [Compound 49]
11 | 10 to 100 | 1 | 1 to 50 | 10 to 1000 | CCC(=O)N1CCC(Cn2cncc2Cn2cc(C(=O)N(C)CCOC)c(-c3cccc4ccccc34)c2)CC1 [Compound 18, 3-[N-(2-Methoxyethyl)-N-methyl]carbamoyl-4-(naphthalen-1-yl)-1-[1-(1-propionyl-piperidin-4-ylmethyl)-1H-imidazol-5-ylmethyl]-1H-pyrrole]
12 | 10 to 100 | 6 | 1 to 10 | 15 | COCCN(C)C(=O)c1cn(Cc2cncn2CC2CCN(C(=O)OCc3ccc(F)cc3)CC2)cc1-c1cccc2ccccc12 [Compound 24]
13 | 10 to 100 | 9 | 1 to 10 | 15 | COCCN(C)C(=O)c1cn(Cc2cncn2CC2CCN(C(=O)c3ccc4ccccc4c3)CC2)cc1-c1cccc2ccccc12 [Compound 27, 3-[N-(2-Methoxyethyl)-N-methyl]carbamoyl-4-(naphthalen-1-yl)-1-{1-[1-(naphthalen-2-ylcarbonyl)piperidin-4-ylmethyl]-1H-imidazol-5-ylmethyl}-1H-pyrrole]
14 | 10 to 100 | 2 | 1 to 10 | 12 | COCCN(C)C(=O)c1cn(Cc2cncn2CC2CCN(C(=O)N3CCc4ccccc4C3)CC2)cc1-c1cccc2ccccc12 [Compound 32, 3-[N-(2-Methoxyethyl)N-methyl]carbamoyl-4-(naphthalen-1-yl)-1-{1-[1-(1,2,3,4-tetrahydroisoquinolin-2-ylcarbonyl)piperidin-4-ylmethyl]-1H-imidazol-5-ylmethyl}-1H-pyrrole]
15 | 30 | 1.7 | 10 to 50 | 8 | CN1CCN(C(=O)c2cn(Cc3cncn3CC3CCN(C(=O)/C=C/c4ccccc4)CC3)cc2-c2cccc3ccccc23)CC1 [Compound 50]
16 | 10 to 100 | 11 | 1 to 10 | 10 to 100 | COCCN(C)C(=O)c1cn(Cc2cncn2CC2CCN(Cc3ccc(Oc4ccccc4)cc3)CC2)cc1-c1cccc2ccccc12 [Compound 34, 3-[N-(2-Methoxyethyl)-N-methyl]carbamoyl-4-(naphthalen-1-yl)-1-{1-[1-(4-phenoxybenzyl)piperidin-4-ylmethyl]-1H-imidazol-5-ylmethyl}-1H-pyrrole]
17 | 10 to 100 | 1 to 10 | 10 to 100 | 10 to 1000 | COCCN(C)C(=O)c1cn(Cc2cncn2CC2CCN(C(=O)OC)CC2)cc1-c1cccc2ccccc12 [Compound 17, 1-[1-(1-Methoxycarbonyl-piperidin-4-ylmethyl)-1H-imidazol-5-ylmethyl]-3[N-(2-methoxyethyl)-N-methyl]carbamoyl-4-(naphthalen-1-yl)-1H-pyrrole]
